According to US11298333B1, “Methods of reducing the risk of cardiovascular events in a subject” (Amarin Pharmaceuticals Ireland Limited, priority 2018, dated 2022):

Test: REDUCE-IT: blood pressure, repeated-measurements analysis of change from baseline
Assay type: in vivo, human
Conditions: 4 g per day; ITT; mixed effects model; exploratory
Experimental: Blood pressure was measured using a standardized process: • Patient sat for […] with feet flat on the floor and measurement arm supported so that the midpoint of the manometer cuff was at heart level; and • Used a mercury sphygmomanometer or automatic blood pressure device with an appropriately sized cuff with the bladder centered over the brachial artery.
Blood pressure was recorded to the nearest 2 mmHg mark on the manometer or to the nearest whole number on an automatic device. A blood pressure reading was repeated 1 to 2 minutes later, and the second reading recorded to the nearest 2 mmHg mark.
It is contemplated that a number of factors contribute to the significant reduction in the cardiovascular risk. Without intending to be bound by any particular theory, one of the contributing factors might relate to the dose and formulation of the icosapent ethyl administered to the patients, in marked contrast to previous studies of omega-3 fatty acid studies. An additional contributing factor could relate to the patients' blood pressure. […] These differences appear to be modest, but it is contemplated, that they might contribute to the benefits of icosapent ethyl. […]

CC/C=C\C/C=C\C/C=C\C/C=C\C/C=C\CCCC(=O)OCC [Icosapent Ethyl, eicosapentaenoic acid ethyl ester]
Average placebo-corrected reduction from baseline in diastolic blood pressure: 0.5 mm Hg | Average placebo-corrected reduction from baseline in systolic blood pressure: 1.3 mm Hg
